No end group written: not given here.
Key:
[1] = target: T1, PACAP-R3 (Homo sapiens, UniProt P41587); assay: Cyclic AMP SPA on CHO cells expressing PACAP R3; assay type: cell-based; design: expressed in transfected cells; host or cells: CHO cells (Geneticin selection); settings: for EC50: cAMP SPA, CHO cells transfected with PACAP-R3, concentration at which 50% of maximum PACAP27 activity is achieved, NA = no detectable activities, read-out: R3 EC50; for R3 Selectivity: ratio of EC50 at R2 versus EC50 at R3
T1 sequence (P41587 24-438): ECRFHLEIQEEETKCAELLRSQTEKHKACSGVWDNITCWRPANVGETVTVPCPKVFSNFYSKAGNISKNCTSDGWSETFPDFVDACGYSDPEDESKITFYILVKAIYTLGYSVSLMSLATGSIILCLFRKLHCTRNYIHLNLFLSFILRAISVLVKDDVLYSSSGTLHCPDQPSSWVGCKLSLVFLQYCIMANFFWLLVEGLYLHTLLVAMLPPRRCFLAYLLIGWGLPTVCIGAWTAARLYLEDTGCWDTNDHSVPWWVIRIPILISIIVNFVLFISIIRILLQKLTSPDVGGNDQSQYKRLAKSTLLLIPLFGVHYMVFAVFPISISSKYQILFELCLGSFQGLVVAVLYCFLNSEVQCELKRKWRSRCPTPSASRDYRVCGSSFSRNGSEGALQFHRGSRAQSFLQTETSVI
How it was run: (§1)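 Potency reflects cyclic AMP accumulation, determined by SPA, after a 15 min, 37 C peptide exposure of CHO cells carrying the human receptor. Values are expressed relative to the maximal PACAP27 effect, with EC50 taken at its 50% level.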

[2] = target: T2, PACAP-R2 (Homo sapiens, UniProt P32241); assay: Cyclic AMP SPA on CHO cells transfected with PACAP-R2; assay type: cell-based; settings: cAMP SPA, concentration at which 50% of maximum PACAP27 activity is achieved, NA = no detectable activities, read-out: R2 EC50
T2 construct: expressed in transfected cells; host or cells: CHO cells
T2 sequence (P32241 31-457): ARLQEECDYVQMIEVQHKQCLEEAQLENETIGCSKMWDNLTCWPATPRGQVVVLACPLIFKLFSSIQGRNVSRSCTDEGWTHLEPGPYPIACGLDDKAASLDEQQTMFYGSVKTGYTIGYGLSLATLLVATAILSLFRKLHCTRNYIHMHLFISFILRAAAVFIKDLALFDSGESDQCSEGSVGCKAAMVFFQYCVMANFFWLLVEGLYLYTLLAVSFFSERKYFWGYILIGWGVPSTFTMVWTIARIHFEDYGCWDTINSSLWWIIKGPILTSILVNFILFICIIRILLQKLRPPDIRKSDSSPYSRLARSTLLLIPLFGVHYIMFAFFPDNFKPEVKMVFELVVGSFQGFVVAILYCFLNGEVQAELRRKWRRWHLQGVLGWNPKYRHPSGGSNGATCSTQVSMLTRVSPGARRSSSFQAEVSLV
How it was run: as §1

| Substance | EC50 [1] [nM] | R3 Selectivity [1] | EC50 [2] [nM] |
| --- | --- | --- | --- |
| HSDAVFTDNYTRLRKQMAAKKYLNSIKNVR [Peptide R3P150] | 0.8 | 50 | 40 |
| HSDAVFTDNYTRLRKQMAAKKYLNSIKNKI [Peptide R3P160] | 0.2 | 500 | 100 |
| H-HSDGIFTDSYSRYRKQLAAKKYLADVKKGGT [Peptide R3P37] | 4 | 18 | 71 |
| HSDAVFTDNYTRLRKQVAAKKYLNSIKKKR [Peptide R3P78] | 1.1 | 230 | 250 |
| HSDAVFTDNYTRLRKQMAAKKYLNSIQNRI [rR3P184] | 0.37 | 30 | 10 |
| HSDAVFTDNYTRLRKQMAIKKYLNSIKNKR [Peptide R3P103] | 0.05 | 8 | 0.4 |
| HSDAVFTDNYTRLRKQMAAHKYLNSIKNKRY [Peptide R3P73] | 0.3 | 170 | 50 |
| HSDAVFTDNYTRLRKQMAVKKYLNSIKK [Peptide R3P41] | 0.08 | 100 | 8 |
| HSDAVFTDNYTRLRKQMAAKKYLNSILK [Peptide R3P50] | 0.13 | 6 | 0.7 |
| HSDGIFTDSYSRYRKQMAVKKYLAKVL-NH2 [PAC25] | 0.04 | 3 | 0.13 |
| HSDAVFTDNYTRLRKQMASKKYLNSIPNRI [rR3P183] | 5.4 | >30 | > 150 |
| HSDGIFTDSYSRYRKKMAVKKYLAAVL-NH2 [PAC16] | 0.2 | 1 | 0.2 |
| HSDAVFTDNYTRLRKQMAAKKYLNSIPNRI [rR3P179] | 1.5 | 150 | 230 |
| HSDAVFTDNYTRLRKQMAAKKYLNSIKN [Peptide R3P49] | 0.27 | 30 | 8 |
| H-HSDGIFTDSYSRYRKQMAKKKYLAAVL-NH2 [PAC19] | 0.4 | 20 | 8 |
| HSDAVFTDNYTRLRKQMAAKKYLNSIKNTR [Peptide R3P149] | 0.5 | 80 | 40 |
| HSDGIFTDSYSRYEKQMAVKKYLAAVL-NH2 [PAC14] | 1.6 | 70 | 110 |
| HSDAVFTDNYTRLRKQMAAKKYLNSIKNKF [Peptide R3P157] | 0.3 | 170 | 50 |
| HSDAVFTDNYTRLRKQLAAKKYLNSIKKGGT [Peptide R3P22] | 1.6 | 24 | 38 |
| HSDAVFTDNYTRLRKQMAAKKYLNSIKNKT [Peptide R3P168] | 0.2 | 300 | 60 |
| H-HSDAVFTDNYTRLRKQMAVKKYLNSIKN [Peptide R3P42] | 0.03 | 10 | 0.3 |
| H-HSDAVFTDNYTRLRKQLAAKKYLNDIKKNQ [Peptide R3P35] | 2.6 | >40 | > 100 |
| HSDAVFTDNYTRLRKQMAAKKYLNSIWNKR [Peptide R3P132] | 0.2 | 50 | 10 |
| HSDAVFTDNYTRLRKQMAAKKYLNSIPNKR [Peptide R3P126] | 1 | 200 | 200 |
| HSDAVFTDNYTRLRKQMAAKKYLNSINNKR [Peptide R3P125] | 2 | 30 | 60 |

Reference: patent US6972319B1, “Pituitary adenylate cyclase activating peptide (PACAP)receptor 3 (R3) agonists and their pharmacological methods of use” (priority 1999, dated 2005)
